Test results published in US12507703B2, “Methods, devices and compositions for preserving human milk” (The Trustees of Princeton University, priority 2023, dated 2025).
Several values for one entry are separate records, joined by “and”; a condition that tells them apart may be missing. Equal entries are not always repeated.

The compounds below were run on lipase (assay: Lipase/lipolysis assay (EnzChek Lipase Substrate, quenched BODIPY-fatty acid conjugate) on stored human milk; on Lipase (RFU): test concentration or dose not given here).

Compound | Lipase (RFU) | Hit in lipase inhibition screen (in words)
O=C1O[C@H]([C@@H](O)CO)[C@H](O)[C@@H]1O [L-Gulono-1,4-lactone] | 1139.877 RFU | –
Pinoresinol | 1253.681 RFU | –
CC/C=C\CC1=C(C)CCC1=O [cis-Jasmone] | 1015.76 RFU | –
OCc1c[nH]c2ccccc12 [Indole-3-carbinol] | 1082.489 RFU | –
CC[C@H]1OC(=O)C[C@@H](O)[C@H](C)[C@@H](O[C@@H]2O[C@H](C)[C@@H](O[C@H]3C[C@@](C)(O)[C@@H](O)[C@H](C)O3)[C@H](N(C)C)[C@H]2O)[C@@H](CC=O)C[C@@H](C)C(=O)/C=C/C(C)=C/[C@@H]1CO[C@@H]1O[C@H](C)[C@@H](O)[C@@H](OC)[C@H]1OC [Tylosin (phosphate)] | 1132.19 RFU | –
C=CC/C(=N/OS(=O)(=O)[O-])S[C@@H]1OC(CO)[C@@H](O)C(O)C1O.[K+] (stereo partly drawn) [Sinigrin] | 1002.884 RFU | –
Laminarin | 336.7375 RFU and 594.197 RFU | significantly inhibited lipase activity
CNC(C)(C)C(=O)O [MeAIB] | 1061.964 RFU | –
O=C(CO)[C@@H](O[C@H]1O[C@H](CO)[C@@H](O)[C@H](O)[C@H]1O)[C@H](O)[C@H](O)CO [Turanose] | 1221.239 RFU and 697.9672 RFU | –
CC1(C)C[C@@H](O)[C@]2(C)CC[C@]3(C)C(=CC[C@@H]4[C@@]5(C)CC[C@H](O)[C@](C)(CO)[C@@H]5CC[C@]43C)[C@@H]2C1 [Soyasapogenol B] | 1146.412 RFU | –
O=c1cc(-c2ccc(O)cc2)oc2c([C@@H]3O[C@H](CO)[C@@H](O)[C@H](O)[C@H]3O)c(O)c([C@@H]3O[C@H](CO)[C@@H](O)[C@H](O)[C@H]3O)c(O)c12 [Vicenin 2] | 893.9745 RFU | –
NC(Cc1c[nH]c2ccccc12)C(=O)O (racemic) [DL-Tryptophan] | 935.3545 RFU | –
OC[C@H]1O[C@@H](O[C@H]2[C@H](O)[C@@H](O)[C@H](O)O[C@@H]2CO)[C@H](O)[C@@H](O)[C@@H]1O [D-(+)-Cellobiose] | 821.3157 RFU | –
O=c1cc(-c2ccc(O)cc2)oc2c([C@@H]3OC[C@@H](O)[C@H](O)[C@H]3O)c(O)c([C@@H]3O[C@H](CO)[C@@H](O)[C@H](O)[C@H]3O)c(O)c12 [Vicenin 3] | 1057.755 RFU | –
COc1cc(OC)c(OC)cc1C=O [Asaraldehyde] | 982.6997 RFU | –
CC(C)CCC[C@@H](C)[C@H]1CC[C@H]2C3=CC=C4C[C@@H](O)CC[C@]4(C)[C@H]3CC[C@]12C [Compound 7-Dehydrocholesterol] | 820.8412 RFU | –
COc1cc(-c2cc(=O)c3c(O)cc(O)cc3o2)cc(OC)c1O [Tricin] | 691.2218 RFU | –
D-(−)-Quinic acid | 827.4863 RFU | –
COc1ccc([C@@H]2CC(=O)c3c(O)cc(O[C@@H]4O[C@H](CO)[C@@H](O)[C@H](O)[C@H]4O[C@@H]4O[C@@H](C)[C@H](O)[C@@H](O)[C@H]4O)cc3O2)cc1O [Neohesperidin] | 774.0784 RFU | –
C=C1C[C@@]23CC[C@H]4[C@@](C)(CCC[C@@]4(C)C(=O)O)[C@@H]2CC[C@]1(O[C@@H]1O[C@H](CO)[C@@H](O)[C@H](O)[C@H]1O[C@@H]1O[C@H](CO)[C@@H](O)[C@H](O)[C@H]1O)C3 [Steviolbioside] | 1061.907 RFU | –
COc1cc(CCCO)ccc1O [Dihydroconiferyl alcohol] | 1331.121 RFU | –

Compound | Lipase (RFU) | Hit in lipase inhibition screen (in words)
C[C@H]1[C@H](C)CC[C@]2(C)CC[C@]3(C)C(=CC[C@@H]4[C@@]5(C)CC[C@@H](O)[C@](C)(C(=O)O)[C@@H]5CC[C@]43C)[C@H]12 [β-Boswellic acid] | 813.2666 RFU | –
Oc1cc(O)c2c(c1)O[C@@]1(c3ccc(O)c(O)c3)Oc3cc(O)c4c(c3[C@@H]2[C@H]1O)O[C@H](c1ccc(O)c(O)c1)[C@H](O)[C@H]4c1c(O)cc(O)c2c1O[C@H](c1ccc(O)c(O)c1)[C@H](O)C2 [Cinnamtannin B-1] | 1061.374 RFU | –
O=c1cc(-c2ccc(O)cc2)oc2c([C@@H]3O[C@H](CO)[C@@H](O)[C@H](O)[C@H]3O)c(O)c([C@@H]3OC[C@H](O)[C@H](O)[C@H]3O)c(O)c12 [Isoschaftoside] | 949.6414 RFU | –
O=c1cc(-c2ccc(O)c(O)c2)oc2cc(O[C@@H]3O[C@H](CO)[C@@H](O)[C@H](O)[C@H]3O)cc(O)c12 [Cynaroside] | 1111.46 RFU | –
c1ccc2c(c1)Nc1ccccc1S2 [Phenothiazine] | 725.1361 RFU | –
CC(=O)O [Acetic Acid] | 1200.605 RFU | –
Nc1c(O)cccc1C(=O)CC(N)C(=O)O (stereo not drawn) [Compound 3-Hydroxykynurenine] | 1303.264 RFU | –
O=c1ccc2cc3ccoc3c(O)c2o1 [Xanthotoxol] | 1117.591 RFU | –
O.O.OC[C@H]1O[C@H](O[C@H]2O[C@H](CO)[C@@H](O)[C@H](O)[C@H]2O)[C@H](O)[C@@H](O)[C@@H]1O [D-(+)-Trehalose dihydrate] | 1045.976 RFU | –
OC[C@H](O)C(O)[C@@H](O)CO [L-Arabitol] | 912.8862 RFU | –
NCCP(=O)(O)O [2-Aminoethyl Phosphonic Acid] | 863.4665 RFU | –
CC(=O)c1c(C)c([N+](=O)[O-])c(C(C)(C)C)c([N+](=O)[O-])c1C [Musk ketone] | 777.5201 RFU | –
Phytol | 1207.906 RFU and 715.6019 RFU | –
COc1cc(/C=C/C(=O)OCC[N+](C)(C)C)cc(OC)c1O.N#C[S-] [Sinapine (thiocyanate)] | 1052.349 RFU | –
C[C@]12CC[C@@H](O)C[C@H]1CC[C@@H]1[C@@H]2CC[C@]2(C)C(=O)CC[C@@H]12 [Etiocholanolone] | 868.806 RFU | –
C=CCSSCC=C [Diallyl disulfide] | 1000.398 RFU and 1055.55 RFU | –
COc1c(O)cc2oc3cc4c(c(O)c3c(=O)c2c1CC=C(C)C)CCC(C)(C)O4 [Compound 3-Isomangostin] | 1135.455 RFU | –
C/C=C/C(=O)C1=C(C)C=CCC1(C)C [Damascenone] | 912.4849 RFU | –
CC(C)=CCC/C(C)=C/CC/C(C)=C/CC/C(C)=C/CC1=C(C)C(=O)c2ccccc2C1=O [Menaquinone-4] | 987.2266 RFU | –
O=C([O-])O.[K+] [Potassium bicarbonate] | 726.638 RFU | –
CCCCCCO [Compound 1-Hexanol] | 1054.453 RFU and 1051.532 RFU | –

Compound | Lipase (RFU) | Hit in lipase inhibition screen (in words)
C[C@H]1CC[C@]2(NC1)O[C@H]1C[C@H]3[C@@H]4CC[C@H]5C[C@@H](O[C@@H]6O[C@H](CO)[C@H](O[C@@H]7O[C@H](CO)[C@@H](O)[C@H](O[C@@H]8OC[C@@H](O)[C@H](O)[C@H]8O)[C@H]7O[C@@H]7O[C@H](CO)[C@@H](O)[C@H](O)[C@H]7O)[C@H](O)[C@H]6O)CC[C@]5(C)[C@H]4CC[C@]3(C)[C@H]1[C@@H]2C [Tomatine] | 635.5707 RFU | –
Xylan | 1273.332 RFU | –
CCCCCCCC(=O)O[C@H](CC(=O)[O-])C[N+](C)(C)C [L-Octanoylcarnitine] | 1071.191 RFU | –
COc1cc(OC)c2c(=O)cc(-c3ccc(OC)c(OC)c3)oc2c1 [5,7,3′,4′-Tetramethoxyflavone] | 1023.427 RFU | –
CC(C)CCC[C@@H](C)[C@H]1CC[C@H]2C3=C(CC[C@]12C)[C@@]1(C)CC[C@H](O)CC1=CC3 [8-Dehydrocholesterol] | 707.3733 RFU | –
COc1cc(/C=C/C(=O)NCC(O)c2ccc(O)cc2)ccc1O (stereo not drawn) [N-Feruloyloctopamine] | 893.4142 RFU | –
C[C@@H]1O[C@@H](O[C@H]2[C@H](Oc3c(-c4ccc(O)c(O)c4)oc4cc(O)cc(O)c4c3=O)O[C@H](CO)[C@@H](O)[C@@H]2O)[C@H](O)[C@H](O)[C@H]1O [Quercetin 3-O-neohesperidoside] | 838.5308 RFU | –
CC1=C(/C=C/C(C)=C/C=C/C(C)=C/C(=O)O)C(C)(C)CCC1=O [all-trans-4-Oxoretinoic acid] | 984.8749 RFU | –
O=c1ccc2ccc(O[C@@H]3O[C@H](CO)[C@@H](O)[C@H](O)[C@H]3O)cc2o1 [Skimmin] | 1029.943 RFU | –
O=c1ccc2cc(O[C@@H]3O[C@H](CO)[C@@H](O)[C@H](O)[C@H]3O)c(O)cc2o1 [Esculin] | 1207.652 RFU | –
C[N+](C)(C)CCO.O=C([O-])C(O)C(O)C(=O)O (stereo not drawn) [Choline (bitartrate)] | 1263.191 RFU and 1046.984 RFU | –
OC[C@H]1O[C@@](CO)(O[C@H]2O[C@H](CO)[C@@H](O)[C@H](O)[C@H]2O)[C@@H](O[C@H]2O[C@H](CO)[C@@H](O)[C@H](O)[C@H]2O)[C@@H]1O [D-(+)-Melezitose] | 886.4563 RFU | –
CC(C)(O)[C@H]1Cc2cc3ccc(=O)oc3cc2O1 [Nodakenetin] | 882.2828 RFU | –
O=C(O)CN(CCO)CCO [Bicine] | 1070.519 RFU | –
Ginkgolide C | 1234.872 RFU | –
COc1cc(C=CC(=O)O)cc(OC)c1O (stereo in doubt) [Sinapinic acid] | 1040.338 RFU | –
Nc1nc2c(ncn2[C@@H]2O[C@@H]3COP(=O)([O-])O[C@H]3[C@H]2O)c(=O)[nH]1.[Na+] [Cyclic GMP (sodium)] | 1109.907 RFU | –
CC(C)(O)C1Cc2cc3cc(-c4cc(O)cc(O)c4)oc3cc2O1 (stereo not drawn) [Moracin O] | 899.9132 RFU | –
CC(C)(C)[C@]1(O)CC2OC(=O)CC23C(=O)OC2OC(=O)[C@H](O)C231 (stereo partly drawn) [Bilobalide] | 1114.018 RFU | –
O=C(O)[C@@H]1C[C@H](O)CN1 [cis-4-Hydroxy-L-proline] | 944.0714 RFU | –
